Results from article PMC3282769 (PLoS ONE, 2012).

Columns and labels:
[1] = biological target: T1, PTC (putrescine transcarbamylase) (Enterococcus faecalis, UniProt Q837U7); assay: X-ray crystal structure, […] Å; format: binding; conditions: bisubstrate analogue in active site; pH 5.5
T1 construct: gene ptcA

[2] = biological target: T2, truncated PTC (PTC lacking the C-terminal helix 13) (Enterococcus faecalis, UniProt Q837U7); assay: X-ray crystal structure, […] Å; format: binding; conditions: bisubstrate analogue in active site; pH 7.5
T2 construct: gene ptcA

[3] = biological target: T1, PTC (putrescine transcarbamylase); assay: X-ray crystal structure, […] Å; format: binding; conditions: bisubstrate analogue in active site; pH 5.5; remark: listed apart in the source
[4] = biological target: T1, PTC (putrescine transcarbamylase); assay: inhibition of transcarbamylase activity, PAPU titration; format: biochemical; conditions: putrescine or ornithine as substrate (one common curve); bisubstrate analogue inhibitor
[5] = biological target: T3, OTC (ornithine transcarbamylase) (Enterococcus faecalis, UniProt Q839Q5); assay: citrulline production, approach to equilibrium; turnover only; format: biochemical; conditions: 10 mM ornithine, 10 mM carbamylphosphate, 0.1 M Tris-HCl pH 8.5, 37°C
T3 construct: gene arcB
T3 sequence (Q839Q5 1-339): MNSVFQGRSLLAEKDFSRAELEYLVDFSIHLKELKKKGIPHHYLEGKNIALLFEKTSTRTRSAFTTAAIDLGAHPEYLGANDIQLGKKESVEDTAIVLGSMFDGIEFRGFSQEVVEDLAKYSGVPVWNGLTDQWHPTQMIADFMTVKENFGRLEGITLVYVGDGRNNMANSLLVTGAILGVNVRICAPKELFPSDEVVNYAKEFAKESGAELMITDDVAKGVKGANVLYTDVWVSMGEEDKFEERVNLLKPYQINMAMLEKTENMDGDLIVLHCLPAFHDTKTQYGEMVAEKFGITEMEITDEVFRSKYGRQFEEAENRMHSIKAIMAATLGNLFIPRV

T1 sequence (Q837U7 whole entry): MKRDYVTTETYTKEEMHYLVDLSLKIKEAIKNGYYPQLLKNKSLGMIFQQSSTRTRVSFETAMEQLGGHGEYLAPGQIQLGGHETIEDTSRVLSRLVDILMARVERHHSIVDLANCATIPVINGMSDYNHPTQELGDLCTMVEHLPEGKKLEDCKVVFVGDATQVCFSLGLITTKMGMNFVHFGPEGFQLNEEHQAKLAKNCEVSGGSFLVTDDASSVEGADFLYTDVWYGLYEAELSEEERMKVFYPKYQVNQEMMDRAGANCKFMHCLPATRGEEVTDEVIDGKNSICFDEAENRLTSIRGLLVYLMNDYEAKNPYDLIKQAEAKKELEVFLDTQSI
T2 sequence (Q837U7 1-317): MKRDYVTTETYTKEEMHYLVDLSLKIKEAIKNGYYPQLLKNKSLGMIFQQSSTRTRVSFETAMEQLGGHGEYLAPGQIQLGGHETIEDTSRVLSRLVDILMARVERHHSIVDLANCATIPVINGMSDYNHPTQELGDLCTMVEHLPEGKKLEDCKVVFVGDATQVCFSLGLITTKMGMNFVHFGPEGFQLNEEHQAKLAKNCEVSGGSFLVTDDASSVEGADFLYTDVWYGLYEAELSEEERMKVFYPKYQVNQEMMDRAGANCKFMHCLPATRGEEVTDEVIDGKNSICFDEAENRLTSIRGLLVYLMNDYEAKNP

N[C@@H](CCCNC(=O)CP(=O)(O)O)C(=O)O [PALO, δ-N-(phosphonoacetyl)-L-ornithine]
X-ray crystal structure, 2.0 Å [1]: 4A8H, 4A8P and 4A8T for PTC-PAPU, PTC-PALO and truncated PTC-PALO, respectively
X-ray crystal structure, 1.59 Å [2]: 4A8H, 4A8P and 4A8T for PTC-PAPU, PTC-PALO and truncated PTC-PALO, respectively

NCCCCNC(=O)CP(=O)(O)O [PAPU, N-(phosphonoacetyl)-putrescine]
X-ray crystal structure, 2.5 Å [3]: 4A8H, 4A8P and 4A8T for PTC-PAPU, PTC-PALO and truncated PTC-PALO, respectively
% activity [4]: PAPU inhibited similarly the activities of PTC with putrescine and with ornithine

NCCC[C@H](N)C(=O)O [L-ornithine]
citrulline production, approach to equilibrium; turnover only [5]: carbamylation of ornithine (open symbols) using either OTC (squares) or PTC (triangles)
